Measured values published in patent US20240083897A1, “GCN2 MODULATING COMPOUNDS AND USES THEREOF” (HiberCell, Inc., priority 2021, published 2024).

biological target: GCN2 (Homo sapiens (Human), UniProt Q9P2K8); test: TR-FRET biochemical assay for inhibition of GCN2; conditions: not given
Sequence (Q9P2K8 whole entry): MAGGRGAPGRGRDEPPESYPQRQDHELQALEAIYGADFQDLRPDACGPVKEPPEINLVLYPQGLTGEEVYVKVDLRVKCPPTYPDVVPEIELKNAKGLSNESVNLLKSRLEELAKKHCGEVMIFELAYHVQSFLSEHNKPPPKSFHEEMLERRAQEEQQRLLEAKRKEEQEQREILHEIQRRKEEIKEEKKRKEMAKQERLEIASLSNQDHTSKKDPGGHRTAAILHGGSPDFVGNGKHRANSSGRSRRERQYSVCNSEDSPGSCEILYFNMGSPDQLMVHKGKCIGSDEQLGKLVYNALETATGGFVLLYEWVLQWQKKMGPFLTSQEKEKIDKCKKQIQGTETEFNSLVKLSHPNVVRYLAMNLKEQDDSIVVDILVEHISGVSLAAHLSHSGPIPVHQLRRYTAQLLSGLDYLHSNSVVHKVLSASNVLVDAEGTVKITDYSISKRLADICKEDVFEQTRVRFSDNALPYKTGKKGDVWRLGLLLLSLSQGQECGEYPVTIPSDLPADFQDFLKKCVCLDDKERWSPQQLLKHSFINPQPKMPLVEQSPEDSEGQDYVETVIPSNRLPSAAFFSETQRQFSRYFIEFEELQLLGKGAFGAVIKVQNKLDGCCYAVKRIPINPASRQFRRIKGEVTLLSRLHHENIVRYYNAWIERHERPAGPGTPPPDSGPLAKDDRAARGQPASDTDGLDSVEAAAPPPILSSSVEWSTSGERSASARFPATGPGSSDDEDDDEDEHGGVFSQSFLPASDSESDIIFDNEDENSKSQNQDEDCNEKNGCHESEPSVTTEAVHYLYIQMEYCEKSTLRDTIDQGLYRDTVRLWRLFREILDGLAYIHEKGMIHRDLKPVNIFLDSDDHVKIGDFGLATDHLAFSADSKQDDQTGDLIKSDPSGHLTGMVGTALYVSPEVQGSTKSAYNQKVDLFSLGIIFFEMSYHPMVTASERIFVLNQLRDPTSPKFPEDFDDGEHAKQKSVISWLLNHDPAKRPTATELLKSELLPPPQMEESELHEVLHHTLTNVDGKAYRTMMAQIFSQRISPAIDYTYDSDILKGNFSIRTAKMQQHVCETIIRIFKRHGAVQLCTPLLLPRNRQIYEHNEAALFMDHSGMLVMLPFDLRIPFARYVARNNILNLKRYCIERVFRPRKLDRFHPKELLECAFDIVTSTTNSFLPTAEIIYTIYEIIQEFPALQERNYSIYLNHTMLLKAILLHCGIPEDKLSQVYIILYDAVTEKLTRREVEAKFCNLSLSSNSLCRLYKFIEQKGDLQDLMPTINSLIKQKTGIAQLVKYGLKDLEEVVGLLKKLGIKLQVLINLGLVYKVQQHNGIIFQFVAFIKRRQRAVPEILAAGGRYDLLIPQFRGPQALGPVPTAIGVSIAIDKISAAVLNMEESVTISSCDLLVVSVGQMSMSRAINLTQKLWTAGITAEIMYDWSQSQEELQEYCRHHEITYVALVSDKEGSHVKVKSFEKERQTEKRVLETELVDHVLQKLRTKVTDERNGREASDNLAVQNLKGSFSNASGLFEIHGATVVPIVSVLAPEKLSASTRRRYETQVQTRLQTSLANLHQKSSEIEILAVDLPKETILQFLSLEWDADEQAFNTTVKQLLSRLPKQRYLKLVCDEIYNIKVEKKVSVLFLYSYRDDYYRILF

| SMILES | IC50 [nM] |
| --- | --- |
| COc1ncc(Cl)cc1S(=O)(=O)Nc1ccc(F)c(-c2cn3cnc(C(=O)NCCCN(C)C)c3cn2)c1F [Compound 172, 6-[3-(5-chloro-2-methoxypyridine-3-sulfonamido)-2,6-difluorophenyl]-N-[3-(dimethylamino)propyl]imidazo[1,5-a]pyrazine-1-carboxamide] | 50 to 500 |
| CNC(=O)c1ncn2c1CC[C@H](c1c(F)ccc(NS(=O)(=O)c3cc(F)cnc3OC)c1Cl)C2 [Compound 152-1, (6R)-6-[2-chloro-6-fluoro-3-(5-fluoro-2-methoxypyridine-3-sulfonamido)phenyl]-N-methyl-5H,6H,7H,8H-imidazo[1,5-a]pyridine-1-carboxamide] | 50 to 500 |
| COc1ncc(C#N)cc1S(=O)(=O)Nc1ccc(F)c([C@@H]2CCc3c(-c4nnc(C)[nH]4)ncn3C2)c1F [Compound 135-1, 5-cyano-N-[2,4-difluoro-3-[(6S)-1-(5-methyl-4H-1,2,4-triazol-3-yl)-5H,6H,7H,8H-imidazo[1,5-a]pyridin-6-yl]phenyl]-2-methoxypyridine-3-sulfonamide] | 50 to 500 |
| CNC(=O)c1ncn2cc(-c3c(F)ccc(NS(=O)(=O)c4cc(F)cnc4OC)c3F)ncc12 [Compound 90, 6-[2,6-difluoro-3-(5-fluoro-2-methoxypyridine-3-sulfonamido)phenyl]-N-methylimidazo[1,5-a]pyrazine-1-carboxamide] | 50 to 500 |
| COc1ncc(F)cc1S(=O)(=O)Nc1ccc(F)c(-c2cn3cnc(-c4[nH]cnc4C4CC4)c3cn2)c1F [Compound 177, N-[3-[1-(5-cyclopropyl-3H-imidazol-4-yl)imidazo[1,5-a]pyrazin-6-yl]-2,4-difluorophenyl]-5-fluoro-2-methoxypyridine-3-sulfonamide] | 50 to 500 |

same assay, conditions: GCN2 2 nM, 100 nM GFP-eIF2a, 150 μM ATP, TR-FRET

| SMILES | IC50 [nM] |
| --- | --- |
| Cc1nnc(-c2ncn3cc(-c4c(F)ccc(NS(=O)(=O)c5cc(F)cnc5C)c4F)ncc23)[nH]1 [Compound 129, N-[2,4-difluoro-3-[1-(5-methyl-4H-1,2,4-triazol-3-yl)imidazo[1,5-a]pyrazin-6-yl]phenyl]-5-fluoro-2-methylpyridine-3-sulfonamide] | < 50 |
| CNC(=O)c1ncn2c(F)c(-c3c(F)ccc(NS(=O)(=O)c4cc(Cl)cnc4OC)c3F)ncc12 [Compound 160, 6-[3-(5-chloro-2-methoxypyridine-3-sulfonamido)-2,6-difluorophenyl]-5-fluoro-N-methylimidazo[1,5-a]pyrazine-1-carboxamide] | < 50 |
| COc1ncc(F)cc1S(=O)(=O)Nc1ccc(F)c(-c2ccc3c(-c4ncc[nH]4)ncn3c2F)c1F [Compound 107, N-[2,4-difluoro-3-[5-fluoro-1-(1H-imidazol-2-yl)imidazo[1,5-a]pyridin-6-yl]phenyl]-5-fluoro-2-methoxypyridine-3-sulfonamide] | < 50 |
| COc1ncc(C#N)cc1S(=O)(=O)Nc1ccc(F)c(-c2ccc3c(-c4nc5ccccc5[nH]4)ncn3c2)c1F [Compound 66, N-[3-[1-(1H-1,3-benzodiazol-2-yl)imidazo[1,5-a]pyridin-6-yl]-2,4-difluorophenyl]-5-cyano-2-methoxypyridine-3-sulfonamide] | < 50 |
| CNC(=O)c1ncn2cc(-c3c(F)ccc(NS(=O)(=O)c4cc(Cl)cnc4OC)c3Cl)ccc12 [Compound 101, 6-(2-chloro-3-((5-chloro-2-methoxypyridine)-3-sulfonamido)-6-fluorophenyl)-N-methylimidazo[1,5-a]pyridine-1-carboxamide] | < 50 |
| COc1ncc(F)cc1S(=O)(=O)Nc1ccc(F)c(-c2ccc3c(-c4nnc[nH]4)ncn3c2)c1F [Compound 70, N-[2,4-difluoro-3-[1-(4H-1,2,4-triazol-3-yl)imidazo[1,5-a]pyridin-6-yl]phenyl]-5-fluoro-2-methoxypyridine-3-sulfonamide] | < 50 |
| Cc1ncc(Cl)cc1S(=O)(=O)Nc1ccc(F)c(-c2ccc3c(-c4nc5c([nH]4)CCCC5)ncn3c2)c1F [Compound 150, 5-chloro-N-(2,4-difluoro-3-(1-(4,5,6,7-tetrahydro-1H-benzo[d]imidazol-2-yl)imidazo[1,5-a]pyridin-6-yl)phenyl)-2-methylpyridine-3-sulfonamide] | < 50 |
| COc1ncc(F)cc1S(=O)(=O)Nc1ccc(F)c(-c2ccc3c(-c4ncc[nH]4)ncn3n2)c1F [Compound 98, N-[2,4-difluoro-3-[5-(1H-imidazol-2-yl)imidazo[1,5-b]pyridazin-2-yl]phenyl]-5-fluoro-2-methoxypyridine-3-sulfonamide] | < 50 |
| COc1ncc(F)cc1S(=O)(=O)Nc1ccc(F)c(-c2ccn3c(-c4ncc[nH]4)ncc3c2)c1F [Compound 36, N-[2,4-difluoro-3-[3-(1H-imidazol-2-yl)imidazo[1,5-a]pyridin-7-yl]phenyl]-5-fluoro-2-methoxypyridine-3-sulfonamide] | < 50 |
| CNC(=O)c1ncn2cc(-c3c(F)ccc(NS(=O)(=O)c4cc(Cl)cnc4C)c3F)ncc12 [Compound 93, 6-[3-(5-chloro-2-methylpyridine-3-sulfonamido)-2,6-difluorophenyl]-N-methylimidazo[1,5-a]pyrazine-1-carboxamide] | < 50 |
| COc1ncc(F)cc1S(=O)(=O)Nc1ccc(F)c(-c2cn3cnc(-c4ncc[nH]4)c3cn2)c1F [Compound 78, N-[2,4-difluoro-3-[1-(1H-imidazol-2-yl)imidazo[1,5-a]pyrazin-6-yl]phenyl]-5-fluoro-2-methoxypyridine-3-sulfonamide] | < 50 |
| Cc1ncc(Cl)cc1S(=O)(=O)Nc1ccc(F)c(-c2ccc3c(-c4ccn(C)n4)ncn3c2)c1F [Compound 62, 5-chloro-N-[2,4-difluoro-3-[1-(1-methylpyrazol-3-yl)imidazo[1,5-a]pyridin-6-yl]phenyl]-2-methylpyridine-3-sulfonamide] | < 50 |
| COc1ncc(Cl)cc1S(=O)(=O)Nc1ccc(F)c([C@@H]2CCn3c(cnc3-c3ncc[nH]3)C2)c1F [Compound 64-1, (R)—N-(3-(3-(1H-imidazol-2-yl)-5,6,7,8-tetrahydroimidazo[1,5-a]pyridin-7-yl)-2,4-difluorophenyl)-5-chloro-2-methoxypyridine-3-sulfonamide] | < 50 |
| COc1ncc(Cl)cc1S(=O)(=O)Nc1ccc(F)c(-c2ccc3c(-c4ncc[nH]4)ncn3c2)c1Cl [Compound 103, 5-chloro-N-[2-chloro-4-fluoro-3-[1-(1H-imidazol-2-yl)imidazo[1,5-a]pyridin-6-yl]phenyl]-2-methoxypyridine-3-sulfonamide] | < 50 |
| COc1ncc(Cl)cc1S(=O)(=O)Nc1ccc(F)c(-c2cn3cnc(C(=O)Nc4cnn(C)c4)c3cn2)c1F [Compound 162, 6-[3-(5-chloro-2-methoxypyridine-3-sulfonamido)-2,6-difluorophenyl]-N-(1-methylpyrazol-4-yl)imidazo[1,5-a]pyrazine-1-carboxamide] | < 50 |
| COc1ncc(Cl)cc1S(=O)(=O)Nc1ccc(F)c(-c2cn3cnc(C(=O)Nc4cnoc4)c3cn2)c1F [Compound 174, 6-[3-(5-chloro-2-methoxypyridine-3-sulfonamido)-2,6-difluorophenyl]-N-(1,2-oxazol-4-yl)imidazo[1,5-a]pyrazine-1-carboxamide] | < 50 |
| COc1ncc(F)cc1S(=O)(=O)Nc1ccc(Cl)c(-c2cn3cnc(-c4ncc[nH]4)c3cn2)c1F [Compound 142, N-[4-chloro-2-fluoro-3-[1-(1H-imidazol-2-yl)imidazo[1,5-a]pyrazin-6-yl]phenyl]-5-fluoro-2-methoxypyridine-3-sulfonamide] | < 50 |
| COc1ncc(Cl)cc1S(=O)(=O)Nc1ncc(F)c(-c2ccc3c(-c4ncc[nH]4)ncn3c2)c1F [Compound 26, 5-chloro-N-[3,5-difluoro-4-[1-(1H-imidazol-2-yl)imidazo[1,5-a]pyridin-6-yl]pyridin-2-yl]-2-methoxypyridine-3-sulfonamide] | < 50 |
| COc1ncc(Cl)cc1S(=O)(=O)Nc1ccc(F)c(-c2ccc3c(-c4nc5c([nH]4)CCCC5)ncn3c2)c1F [Compound 147, 5-chloro-N-(2,4-difluoro-3-(1-(4,5,6,7-tetrahydro-1H-benzo[d]imidazol-2-yl)imidazo[1,5-a]pyridin-6-yl)phenyl)-2-methoxypyridine-3-sulfonamide] | < 50 |
| COc1ncc(C#N)cc1S(=O)(=O)Nc1ccc(F)c(-c2ccc3c(-c4ccno4)ncn3c2)c1F [Compound 119, 5-cyano-N-[2,4-difluoro-3-[1-(1,2-oxazol-5-yl)imidazo[1,5-a]pyridin-6-yl]phenyl]-2-methoxypyridine-3-sulfonamide] | < 50 |
| COc1ncc(Cl)cc1S(=O)(=O)Nc1ccc(F)c([C@H]2CCc3c(-c4ncc[nH]4)ncn3C2)c1F [Compound 79-1, 5-chloro-N-[2,4-difluoro-3-[(6R)-1-(1H-imidazol-2-yl)-5H,6H,7H,8H-imidazo[1,5-a]pyridin-6-yl]phenyl]-2-methoxypyridine-3-sulfonamide] | < 50 |
| COc1ncc(Cl)cc1S(=O)(=O)Nc1ccc(F)c(-c2ccc3c(-c4nnc(C)[nH]4)ncn3c2)c1F [Compound 57, 5-chloro-N-[2,4-difluoro-3-[1-(5-methyl-4H-1,2,4-triazol-3-yl)imidazo[1,5-a]pyridin-6-yl]phenyl]-2-methoxypyridine-3-sulfonamide] | < 50 |
| COc1ncc(Cl)cc1S(=O)(=O)Nc1ccc(F)c([C@@H]2CCc3c(-c4ncc[nH]4)ncn3C2)c1F [Compound 79-2, 5-chloro-N-[2,4-difluoro-3-[(6S)-1-(1H-imidazol-2-yl)-5H,6H,7H,8H-imidazo[1,5-a]pyridin-6-yl]phenyl]-2-methoxypyridine-3-sulfonamide] | < 50 |
| COc1ncc(F)cc1S(=O)(=O)Nc1ccc(F)c([C@@H]2CCc3c(-c4nnc(C)[nH]4)ncn3C2)c1F [Compound 131-1, N-[2,4-difluoro-3-[(6S)-1-(5-methyl-4H-1,2,4-triazol-3-yl)-5H,6H,7H,8H-imidazo[1,5-a]pyridin-6-yl]phenyl]-5-fluoro-2-methoxypyridine-3-sulfonamide] | < 50 |
| Cc1ncc(Cl)cc1S(=O)(=O)Nc1ccc(F)c(-c2ccc3c(-c4nc(C)c(C)[nH]4)ncn3c2)c1F [Compound 146, 5-chloro-N-(3-(1-(4,5-dimethyl-1H-imidazol-2-yl)imidazo[1,5-a]pyridin-6-yl)-2,4-difluorophenyl)-2-methylpyridine-3-sulfonamide] | < 50 |
